Assay results as given in PubChem BioAssay AID200 (DTP/NCI, 2004).
Values joined by “and” are separate entries in the source; they are usually repeats but may differ in a detail not shown here. Identical values can stand only once. Toxic doses and inconclusive results are not listed. Where a SMILES comes first, the peptide text is derived from it.

System: B6C3F1 mice, B16 melanoma ip, median survival T/C
Assay: NCI In Vivo Anticancer Drug Screen. Data for tumor model B16 Melanoma (intraperitoneal) in B6C3F1 mice
Conditions: endpoint: median survival time, higher = longer survival
Summary of the method: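 Mice bearing transplanted tumor were dosed with compound or vehicle, and survival was recorded. Activity is expressed as the treated-group measurement (T) divided by the vehicle control measurement (C).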

[1] = dose: 6.25 mg/kg/injection, schedule: Q01DX009 (ip), vehicle: saline
[2] = dose: 12.5 mg/kg/injection, schedule: Q01DX009 (ip), vehicle: saline
[3] = dose: 25.0 mg/kg/injection, schedule: Q01DX009 (ip), vehicle: saline
[4] = dose: 50.0 mg/kg/injection, schedule: Q01DX009 (ip), vehicle: saline
[5] = dose: 100.0 mg/kg/injection, schedule: Q01DX009 (ip), vehicle: saline
[6] = dose: 200.0 mg/kg/injection, schedule: Q01DX009 (ip), vehicle: saline
[7] = dose: 400.0 mg/kg/injection, schedule: Q01DX009 (ip), vehicle: saline
[8] = dose: 25.0 mg/kg/injection, schedule: Q01DX009 (ip), vehicle: saline with Tween-80
[9] = dose: 50.0 mg/kg/injection, schedule: Q01DX009 (ip), vehicle: saline with Tween-80
[10] = dose: 100.0 mg/kg/injection, schedule: Q01DX009 (ip), vehicle: saline with Tween-80
[11] = dose: 100.0 mg/kg/injection, schedule: Q01DX009 (ip), vehicle: Klucel (hydroxypropylcellulose) (HPC)
[12] = dose: 200.0 mg/kg/injection, schedule: Q01DX009 (ip), vehicle: Klucel (hydroxypropylcellulose) (HPC)
[13] = dose: 50.0 mg/kg/injection, schedule: Q01DX009 (ip), vehicle: Klucel (hydroxypropylcellulose) (HPC)
[14] = dose: 400.0 mg/kg/injection, schedule: Q01DX009 (ip), vehicle: Klucel (hydroxypropylcellulose) (HPC)

C1CN1P1(N2CC2)=NP(N2CC2)(N2CC2)=NP(N2CC2)(N2CC2)=NP(N2CC2)(N2CC2)=N1
T/C (dose: 1.0 mg/kg/injection, schedule: Q01DX009 (ip), vehicle: saline): 95 % of control and 98 % of control
T/C (dose: 1.0 mg/kg/injection, schedule: Q02DX009 (ip), vehicle: saline): 91 % of control and 97 % of control
T/C (dose: 2.0 mg/kg/injection, schedule: Q01DX009 (ip), vehicle: saline): 92 % of control and 96 % of control
T/C (dose: 2.0 mg/kg/injection, schedule: Q02DX009 (ip), vehicle: saline): 91 % of control and 97 % of control
T/C (dose: 4.0 mg/kg/injection, schedule: Q01DX009 (ip), vehicle: saline): 109 % of control and 95 % of control
T/C (dose: 4.0 mg/kg/injection, schedule: Q02DX009 (ip), vehicle: saline): 91 % of control and 98 % of control
T/C (dose: 8.0 mg/kg/injection, schedule: Q01DX009 (ip), vehicle: saline): 89 % of control and 107 % of control
T/C (dose: 8.0 mg/kg/injection, schedule: Q02DX009 (ip), vehicle: saline): 90 % of control and 97 % of control
T/C (dose: 16.0 mg/kg/injection, schedule: Q01DX009 (ip), vehicle: saline): 91 % of control and 100 % of control
T/C (dose: 16.0 mg/kg/injection, schedule: Q02DX009 (ip), vehicle: saline): 112 % of control
T/C (dose: 32.0 mg/kg/injection, schedule: Q01DX009 (ip), vehicle: saline): 109 % of control and 91 % of control
T/C (dose: 32.0 mg/kg/injection, schedule: Q02DX009 (ip), vehicle: saline): 88 % of control and 103 % of control
T/C (dose: 64.0 mg/kg/injection, schedule: Q01DX009 (ip), vehicle: saline): 109 % of control and 90 % of control
T/C (dose: 64.0 mg/kg/injection, schedule: Q02DX009 (ip), vehicle: saline): 94 % of control and 100 % of control

C1CNCOC1
T/C [1]: 112 % of control and 95 % of control
T/C [2]: 102 % of control and 104 % of control
T/C [3]: 96 % of control and 101 % of control
T/C [4]: 96 % of control and 103 % of control
T/C [5]: 112 % of control
T/C [6]: 105 % of control

CC(C)(C#CC(C)(C)OC(=O)Nc1ccccc1)OC(=O)Nc1ccccc1
T/C [5]: 106 % of control
T/C [6]: 100 % of control
T/C [7]: 98 % of control

NCCCNCCCCNC(=O)C(O)NC(=O)CCCCCCN=C(N)N (stereo unspecified)
T/C [1]: 108 % of control
T/C [2]: 95 % of control

O=S(=O)(c1ccccc1)N1CN2CCN(C2)C1
T/C (dose: 12.5 mg/kg/injection, schedule: Q01DX009 (ip), vehicle: saline with Tween-80): 96 % of control
T/C [8]: 94 % of control
T/C [9]: 108 % of control
T/C [10]: 112 % of control
T/C (dose: 200.0 mg/kg/injection, schedule: Q01DX009 (ip), vehicle: saline with Tween-80): 119 % of control
T/C (dose: 400.0 mg/kg/injection, schedule: Q01DX009 (ip), vehicle: saline with Tween-80): 122 % of control

Oc1cccc2ccccc12
T/C (dose: 25.0 mg/kg/injection, schedule: Q01DX009 (sc), vehicle: other): 97 % of control
T/C (dose: 50.0 mg/kg/injection, schedule: Q01DX009 (sc), vehicle: other): 94 % of control
T/C (dose: 100.0 mg/kg/injection, schedule: Q01DX009 (sc), vehicle: other): 100 % of control
T/C (dose: 200.0 mg/kg/injection, schedule: Q01DX009 (sc), vehicle: other): 92 % of control

NCC(=O)NC(CC(N)=O)C(=O)O (stereo unspecified) (HELM PEPTIDE1{G.[NC(=O)CC(N[*:1])C(=O)O]}$$$$V2.0)
T/C [4]: 98 % of control
T/C [5]: 91 % of control
T/C [6]: 93 % of control

O=C1N[C@@H]2C(=C[C@H](O)[C@@H](O)[C@H]2O)c2cc3c(c(O)c21)OCO3
T/C (dose: 0.62 mg/kg/injection, schedule: Q01DX009 (ip), vehicle: saline with Tween-80): 115 % of control
T/C (dose: 1.25 mg/kg/injection, schedule: Q01DX009 (ip), vehicle: saline with Tween-80): 111 % of control
T/C (dose: 2.5 mg/kg/injection, schedule: Q01DX009 (ip), vehicle: saline with Tween-80): 109 % of control
T/C (dose: 5.0 mg/kg/injection, schedule: Q01DX009 (ip), vehicle: saline with Tween-80): 123 % of control

NCc1ccc(O)c(O)c1
T/C (dose: 28.13 mg/kg/injection, schedule: Q03HX024 (ip), vehicle: saline): 98 % of control
T/C (dose: 56.25 mg/kg/injection, schedule: Q03HX024 (ip), vehicle: saline): 107 % of control
T/C (dose: 75.0 mg/kg/injection, schedule: Q01DX009 (ip), vehicle: saline): 110 % of control
T/C (dose: 225.0 mg/kg/injection, schedule: Q03HX024 (ip), vehicle: saline): 124 % of control
T/C (dose: 300.0 mg/kg/injection, schedule: Q01DX009 (ip), vehicle: saline): 114 % of control and 117 % of control
T/C [7]: 117 % of control and 118 % of control
T/C (dose: 500.0 mg/kg/injection, schedule: Q01DX009 (ip), vehicle: saline): 117 % of control and 91 % of control

O=C(O)C1CCCN1C(=O)OCC1c2ccccc2-c2ccccc21 (stereo unspecified)
T/C [11]: 107 % of control
T/C [12]: 104 % of control

CCC1OCCN1C(C)C (stereo unspecified)
T/C [3]: 107 % of control
T/C [4]: 107 % of control
T/C [5]: 98 % of control

C=C(C)CNC1=C(C)C(=O)C2=C(C1=O)[C@H](COC(N)=O)[C@]1(OC)[C@@H]3N[C@@H]3CN21
T/C (dose: 0.5 mg/kg/injection, schedule: Q01DX001 (ip), vehicle: distilled water + Tween-80): 122 % of control
T/C (dose: 4.0 mg/kg/injection, schedule: Q01DX001 (ip), vehicle: distilled water + Tween-80): 160 % of control
T/C (dose: 8.0 mg/kg/injection, schedule: Q01DX001 (ip), vehicle: distilled water + Tween-80): 186 % of control
T/C (dose: 16.0 mg/kg/injection, schedule: Q01DX001 (ip), vehicle: distilled water + Tween-80): 226 % of control

O=C1C=CC(=Nc2ccc3c(c2)C(Br)c2ccccc2-3)O1 (stereo unspecified)
T/C (dose: 5.0 mg/kg/injection, schedule: Q01DX009 (ip), vehicle: saline): 92 % of control
T/C (dose: 10.0 mg/kg/injection, schedule: Q01DX009 (ip), vehicle: saline): 87 % of control

C[C@]12CCC(=O)C=C1CC[C@@H]1[C@@H]2C(=O)C[C@@]2(C)[C@H]1CC[C@]2(O)C(=O)CO
T/C [13]: 106 % of control
T/C [11]: 93 % of control
T/C [12]: 108 % of control
T/C [14]: 117 % of control

CN(C)c1ccc(C(=C2C=CC(=[N+](C)C)C=C2)c2ccc(N(C)C)cc2)cc1 (tested in a mixture with another compound)
T/C (dose: 0.62 mg/kg/injection, schedule: Q01DX009 (ip), vehicle: saline): 95 % of control
T/C (dose: 1.25 mg/kg/injection, schedule: Q01DX009 (ip), vehicle: saline): 105 % of control
T/C (dose: 2.5 mg/kg/injection, schedule: Q01DX009 (ip), vehicle: saline): 104 % of control

Cc1c(N)nc(C(CC(N)=O)NCC(N)C(N)=O)nc1C(=O)NC(C(=O)NC(C)C(O)CC(=O)NC(C(=O)NC(OC1OC(C)C(N)C(O)C1O)C(O)c1nc(-c2nc(C(=O)NCCCC(N)CC(=O)NCCCNCCCCN)cs2)cs1)C(C)O)C(OC1OC(CO)C(O)C(O)C1OC1OC(CO)C(O)C(OC(N)=O)C1O)c1cnc[nH]1 (stereo unspecified)
T/C (dose: 0.5 mg/kg/injection, schedule: Q01DX009 (ip), vehicle: saline): 120 % of control

CC1=NNC(=O)C1CCO (stereo unspecified)
T/C (dose: 12.5 mg/kg/injection, schedule: Q01DX009 (ip), vehicle: Klucel (hydroxypropylcellulose) (HPC)): 98 % of control
T/C (dose: 25.0 mg/kg/injection, schedule: Q01DX009 (ip), vehicle: Klucel (hydroxypropylcellulose) (HPC)): 104 % of control
T/C [13]: 98 % of control
T/C [11]: 98 % of control
T/C [12]: 96 % of control
T/C [14]: 96 % of control

[Cl][Pt+2][Cl].[NH-]c1cc(Cl)c(Cl)cc1[NH-]
T/C (dose: 20.0 mg/kg/injection, schedule: Q01DX009 (ip), vehicle: saline with Tween-80): 97 % of control and 107 % of control
T/C (dose: 40.0 mg/kg/injection, schedule: Q01DX009 (ip), vehicle: saline with Tween-80): 110 % of control and 101 % of control
T/C (dose: 80.0 mg/kg/injection, schedule: Q01DX009 (ip), vehicle: saline with Tween-80): 110 % of control and 122 % of control
T/C (dose: 160.0 mg/kg/injection, schedule: Q01DX009 (ip), vehicle: saline with Tween-80): 111 % of control and 105 % of control
T/C (dose: 320.0 mg/kg/injection, schedule: Q01DX009 (ip), vehicle: saline with Tween-80): 110 % of control and 106 % of control

O=c1[nH]cnc2[nH]ncc12
T/C (dose: 12.5 mg/kg/injection, schedule: Q01DX009 (ip), vehicle: suspension in saline): 103 % of control
T/C (dose: 25.0 mg/kg/injection, schedule: Q01DX009 (ip), vehicle: suspension in saline): 112 % of control
T/C (dose: 50.0 mg/kg/injection, schedule: Q01DX009 (ip), vehicle: suspension in saline): 97 % of control
T/C (dose: 100.0 mg/kg/injection, schedule: Q01DX009 (ip), vehicle: suspension in saline): 88 % of control

CC(C)n1cc2c(N)ncnc2n1
T/C [8]: 93 % of control
T/C [9]: 91 % of control
T/C [10]: 86 % of control
